19 compounds from EP2698385A1, “Detection of synthetic cannabinoids” (priority 2012, dated 2014) can be followed below.

What all share (assay type): binding, sheep
The test system of one test is Antibody to Immunogen I. The note with it: Cross-reactants at 100 ng/ml; Antibody to Immunogen I. The protocol:
(§1) An aqueous solution of each immunogen was formulated with Freund's Complete Adjuvant (FCA) to form an emulsion consisting of 2mg/ml* immunogen in 50% (v/v) FCA. Three sheep were immunised with this emulsion (1° immunisation), 0.25ml being intramuscularly injected at each of four sites in the flank of each animal. Subsequent immunizations (boosts) contained 1mg/ml* immunogen. All boosts were emulsified in 50% (v/v) Freund's Incomplete Adjuvant (FIA) and were administered in the same manner as the 1° immunisation, at monthly intervals. Blood sampling took place 7 to 14 days after each boost. *The general procedure for immunogen administration is outlined above, however, it was necessary to deviate from this protocol in some cases, due to reduced immunogen concentrations (Immunogens II, IV, VII and VIII) and/or amount available (Immunogen VIII). Any deviations from the protocol described are outlined in Table 1A below and highlighted in bold. Table 1A: Amount and volume of immunogens administered for primary and subsequent boosts
(§2) The wells of an enhanced binding 96 well polystyrene microtiter plate were coated with IgG fraction of antiserum raised to Immunogen I or II, diluted in 10mM Tris, pH8.5 (125µl/well). The appropriate antibody coating dilution was determined using standard ELISA checkerboard techniques. The plate was incubated overnight at 4°C, washed 4 times over 10 minutes with Tris buffered saline containing Tween 20 (TBST) and tapped dry. Standard solutions (JWH-018 for Immunogens I and II) were applied at 0, 0.625, 1.25, 2.5, 5, 10, 20 and 40ng/ml and 50µl of each was added to the appropriate wells. 75µl of conjugate (appropriate hapten-HRP) diluted in Tris buffer (pH 7.2) containing EDTA, D-mannitol, sucrose, thimerosal and BSA, was added to each of the wells. The appropriate dilution of conjugate was also determined using standard ELISA checkerboard techniques. The plate was incubated at 25°C for 1 hour. Excess unbound conjugate was removed by washing 6 times over a 10 minute period with TBST. 125µl of tetramethylbenzidine (TMB) substrate solution was added to each well of the plate that was then incubated for 20 minutes in the dark at room temperature. The reaction was terminated by addition of 125µl 0.2M H2SO4 to each well. The absorbance was then measured at 450nm using a microtiter plate reader. The data are inputted to a computer program called 'KC Junior'. It is a 4 parameter fit curve and allow the calculatation of concentrations between the standard runs. This program is used to calculate the IC50s by dividing the 0ng/ml OD value by 2 and obtaining the concentration value from the curve for this OD.
In a similar manner to that described above, the wells of a 96-well microtiter plate were coated with the IgG fraction of the antiserum raised to Immunogens I or II. Standard solutions (JWH-018 for Immunogen I and II) were applied at 0, 0.625, 1.25, 2.5, 5, 10, 20 and 40ng/ml and conjugate was employed as detection reagent.
(§3) The data set our in Tables 3 and 4 are generated using antibodies raised against the indicated Immunogens in a competitive binding assay with the indicated tracers, using the indicated standards: Table 2
(§4) A450 = absorbance at 450nm B = absorbance at 450nm at xng/ml standard concentration B0 = absorbance at 450nm at 0ng/ml standard concentration IC50 = standard concentration which produces 50% B/B0
(§5) In order to determine the specificity of the competitive ELISAs, standard solutions of a range of structurally similar synthetic cannabinoids and their metabolites were prepared in TBST. Using the calibration curves generated and employing a single level of cross reactants, these were used to determine the cross-reactivity of each immunoassay with these substances. […]

The next test concerns Antibody to Immunogen II. The test can be described thus: Competitive ELISA (Example 36), antibody RS1833B12, tracer ESC4555/LK959, standard JWH-018. The note with it: Cross-reactants at 100 ng/ml; Antibody to Immunogen II. The protocol: as §1
as §2, with “The” for “The wells of an enhanced binding 96 well polystyrene microtiter plate were coated with IgG fraction of antiserum raised to Immunogen I or II, diluted in 10mM Tris, pH8.5 (125µl/well). The”, “Standard solutions (JWH-018 for Immunogens I and II) were applied at 0, 0.625, 1.25, 2.5, 5, 10, 20 and 40ng/ml and 50µl of each was added to the appropriate wells.” left out, “runs.” for “runs. This program is used to calculate the IC50s by dividing the 0ng/ml OD value by 2 and obtaining the concentration value from the curve for this OD.”
In a similar manner to that described above, the wells of a 96-well microtiter plate were coated with the IgG fraction of the antiserum raised to Immunogens I or II.
as §3
Using the calibration curves generated and employing a single level of cross reactants, these were used to determine the cross-reactivity of each immunoassay with these substances. These are the standards used for the IC50 and cross-reactivity data generation • Immunogen I - JWH-018 • Immunogen II - JWH-018 • Immunogen IV - JWH-018 • Immunogen VII - JWH-015 • Immunogen VIII - JWH-018 Table 4: Cross reactivity of the competitive ELISAs for synthetic cannabinoids and their metabolites
In general terms: An ELISA detects its analyte on a solid surface through an enzyme-linked reagent.

For another test, the system named is Antibody to Immunogen IV. The note with it: Cross-reactants at 100 ng/ml; Antibody to Immunogen IV. The protocol: as §1, §2
(§6) In a similar manner to that described above, the wells of a 96-well microtiter plate were coated with the IgG fraction of the antiserum raised to Immunogens IV, VII or VIII. Standard solutions (JWH-018 for Immunogens IV and VIII, JWH-015 for Immunogen VII) were prepared in TBST at 0, 1.25, 2.5, 5, 10, 20, 40 and 80ng/ml and conjugate was employed as detection reagent.
as §3, §4, §5

The test system of test [1] is Antibody to Immunogen VIII. The conditions noted are these: Cross-reactants at 100 ng/ml; Antibody to Immunogen VIII. The protocol:
as §1, §2, §6, §3, §4, §5

Test [2] deals with Antibody to Immunogen VII. The conditions noted are these: Cross-reactants at 100 ng/ml; Antibody to Immunogen VII. How it is done:
as §1, §2, §6, §3, §4, §5

Turning to `CC(F)CCCn1cc(C(=O)c2cccc3ccccc23)c2ccccc21` (single isomer, unassigned) [AM-2201 N-(4-fluoropentyl) isomer], the “%B/B0” value in the test with Antibody to Immunogen I is 3.45%; with Antibody to Immunogen II it was 14.60%; with Antibody to Immunogen IV it was 5.72%; in test [1] it was 15.00%; in test [2] it was 52.70%.

Regarding `O=C(c1ccc(Cl)c2ccccc12)c1cn(CCCCCO)c2ccccc12` [JWH-398 N-(5-hydroxypentyl) metabolite], the “%B/B0” value with Antibody to Immunogen I is listed as 48.07%; in the test with Antibody to Immunogen II it was 67.49%; with Antibody to Immunogen IV it was 22.01%; in test [1] it was 51.33%; in test [2], 82.97%.

Turning to `CCCCn1c(C)c(C(=O)c2cccc3ccccc23)c2ccccc21` [JWH-016], the “%B/B0” value was 20.71% in the test with Antibody to Immunogen I; 68.73% with Antibody to Immunogen II; 91.14% in the test with Antibody to Immunogen IV; 75.24% in test [1]; 19.31% in test [2].

As to `CN1CCCCC1Cn1cc(C(=O)c2ccccc2I)c2ccccc21` (centres unmarked) [AM-2233], the “%B/B0” value is listed as 16.97% in the test on Antibody to Immunogen I; 86.43% in the test on Antibody to Immunogen II; 92.10% in the test with Antibody to Immunogen IV; 91.25% in test [1]; 72.46% in test [2].

Take `CCCCn1cc(C(=O)c2cccc3ccccc23)c2cc(O)ccc21` [JWH-073 5-hydroxyindole metabolite]: the “%B/B0” value in the test with Antibody to Immunogen I was found to be 7.34%; in the test with Antibody to Immunogen II, 20.73%; in the test with Antibody to Immunogen IV it was 84.06%; in test [1], 90.70%; in test [2], 75.11%.

`CCCCCn1cc(C(=O)c2cccc3c(OC)cccc23)c2ccccc21` [JWH-081 5-methoxynaphthyl isomer]: the “%B/B0” value in the test on Antibody to Immunogen I is 18.51%; in the test with Antibody to Immunogen II it was 60.90%; in the test on Antibody to Immunogen IV it was 6.24%; in test [1], 26.56%; in test [2], 94.16%.

Regarding `CCCCn1cc(C(=O)c2cccc3ccccc23)c2c(O)cccc21` [JWH-073 4-hydroxyindole metabolite], the “%B/B0” value is 39.50% in the test on Antibody to Immunogen I; 40.14% in the test on Antibody to Immunogen II; 28.69% in the test with Antibody to Immunogen IV; 26.23% in test [1]; 82.82% in test [2].

For the compound `CC(C)C(C)n1cc(C(=O)c2cccc3ccccc23)c2ccccc21` (single isomer, unassigned) [JWH 018 N-(1,2-dimethylpropyl) isomer], the “%B/B0” value came to 6.60% in the test with Antibody to Immunogen I; 71.33% in the test with Antibody to Immunogen II; 87.11% with Antibody to Immunogen IV; 67.71% in test [1]; 62.29% in test [2].

Take `CCCCCCCn1cc(C(=O)c2cccc3ccccc23)c2ccccc21` [JWH-020]: the “%B/B0” value in the test with Antibody to Immunogen I was 16.03%; with Antibody to Immunogen II, 35.75%; in the test on Antibody to Immunogen IV, 73.73%; in test [1], 100.73%; in test [2], 81.30%.

Consider `O=C(c1cccc2ccccc12)c1cn(CCN2CCOCC2)c2cc(O)ccc12` [JWH-200 6-hydroxyindole metabolite], for which the “%B/B0” value in the test on Antibody to Immunogen I came out at 7.27%; in the test with Antibody to Immunogen II, 61.65%; in the test with Antibody to Immunogen IV, 94.41%; in test [1] it was 83.20%; in test [2], 65.52%.

In the case of `Cc1ccc(C(=O)c2cn(CCCCCO)c3ccccc23)c2ccccc12` [JWH-122 N-(5-hydroxypentyl) metabolite], the “%B/B0” value with Antibody to Immunogen I amounted to 42.80%; in the test on Antibody to Immunogen II, 71.76%; in the test with Antibody to Immunogen IV it was 25.72%; in test [1] it was 48.67%; in test [2] it was 83.65%.

On to `O=C(c1cccc2ccccc12)c1cn(CCN2CCOCC2)c2cccc(O)c12` [JWH-200 4-hydroxyindole metabolite], for which the “%B/B0” value in the test on Antibody to Immunogen I worked out at 44.97%; with Antibody to Immunogen II, 78.17%; in the test on Antibody to Immunogen IV it was 87.88%; in test [1] it was 91.82%; in test [2], 91.15%.

As to `O=C(c1cccc2ccccc12)c1cn(CCN2CCOCC2)c2ccc(O)cc12` [JWH-200 5-hydroxyindole metabolite], the “%B/B0” value in the test with Antibody to Immunogen I is 12.61%; with Antibody to Immunogen II it was 64.99%; with Antibody to Immunogen IV it was 97.53%; in test [1], 90.88%; in test [2], 82.42%.

For `CCCCCCCC(C)(C)c1ccc([C@H]2CCC[C@@H](O)C2)c(O)c1` [CP-49,497-C8-homologue], the “%B/B0” value in the test with Antibody to Immunogen I is on record as 101.11%; in the test on Antibody to Immunogen IV it was 94.66%; in test [1], 104.88%; in test [2] it was 98.55%.

With `COc1ccc(C(=O)c2cn(CCCCCO)c3ccccc23)c2ccccc12` [JWH-081 N-(5-hydroxypentyl) metabolite], the “%B/B0” value in the test with Antibody to Immunogen I was determined as 61.86%; in the test on Antibody to Immunogen IV, 26.31%; in test [1] it was 47.16%; in test [2], 89.31%.

For the compound `CCCCCCC(C)(C)c1cc(O)c2c(c1)OC(C)(C)[C@H]1CC=C(CO)C[C@H]21` [HU-211 (Dexanabinol), Dexanabinol], the “%B/B0” value came to 103.36% with Antibody to Immunogen I, 93.37% in the test on Antibody to Immunogen IV, 92.70% in test [1] and 96.78% in test [2].

For `COc1ccccc1CC(=O)c1cn(CCC2CCCCC2)c2ccccc12` [RCS-8 (SR-18), RCS-8], the “%B/B0” value amounted to 82.65% in the test on Antibody to Immunogen I, 85.50% with Antibody to Immunogen IV, 88.79% in test [1] and 94.57% in test [2].

As for “JWH 203 3-chloro isomer [JWH 203 3-chloro isomer (JWH-237)]”, the “%B/B0” value with Antibody to Immunogen I amounted to 95.59%; with Antibody to Immunogen IV, 55.09%; in test [1], 10.34%; in test [2] it was 97.42%.

For the compound `CCCCCn1cc(C(=O)Cc2ccccc2OC)c2ccccc21` [JWH-250], the “%B/B0” value was 78.94% in the test on Antibody to Immunogen I, 41.08% with Antibody to Immunogen IV, 9.40% in test [1] and 97.23% in test [2].
